The record followed here is PubChem BioAssay AID504330 (The Scripps Research Institute Molecular Screening Center, 2011).

Calls of active or inactive are those of the source.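 How the source made its calls: active means EC50 at or below 10 µM; inactive means the rest.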

The experiment has as its target Caspase-7 (Homo sapiens) (UniProt P55210). In words: procaspase-7 activators, dose response, dual procaspase-3/-7 activator project, biochemical, absorbance, human (AID 504330). To be noted: recombinant procaspase-7 D3A, Ac-DEVD-pNA absorbance 405 nm.

Sequence of Caspase-7 (Homo sapiens) (P55210 whole entry D23A/D198A/D206A): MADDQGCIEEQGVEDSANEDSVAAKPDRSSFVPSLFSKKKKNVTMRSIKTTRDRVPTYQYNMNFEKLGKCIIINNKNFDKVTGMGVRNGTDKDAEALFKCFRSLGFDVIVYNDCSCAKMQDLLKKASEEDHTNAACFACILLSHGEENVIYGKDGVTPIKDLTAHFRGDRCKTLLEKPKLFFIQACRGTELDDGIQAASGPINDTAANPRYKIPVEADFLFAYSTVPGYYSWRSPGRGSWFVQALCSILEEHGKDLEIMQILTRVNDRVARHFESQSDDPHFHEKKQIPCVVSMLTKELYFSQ

Broadly, the EC50 is the concentration at which the effect is half-maximal. On to `CCOc1ccc(N=CC2=C(O)CC(c3ccco3)CC2=O)cc1` (stereo unspecified), for which the EC50 was > 85.3 µM (inactive).
